Key:
[1] = molecular target: Acetylcholinesterase (Electrophorus electricus, UniProt O42275); experiment: Inhibition of electric eel AchE using acetylthiocholine as substrate by Ellman's method
[2] = molecular target: Cholinesterase (Equus caballus, UniProt P81908); experiment: Inhibition of equine serum BuchE using butyrylthiocholine as substrate by Ellman's method
[3] = molecular target: 3',5'-cyclic-AMP phosphodiesterase 4D (Homo sapiens, UniProt Q08499)
Sequence of 3',5'-cyclic-AMP phosphodiesterase 4D (Q08499 whole entry): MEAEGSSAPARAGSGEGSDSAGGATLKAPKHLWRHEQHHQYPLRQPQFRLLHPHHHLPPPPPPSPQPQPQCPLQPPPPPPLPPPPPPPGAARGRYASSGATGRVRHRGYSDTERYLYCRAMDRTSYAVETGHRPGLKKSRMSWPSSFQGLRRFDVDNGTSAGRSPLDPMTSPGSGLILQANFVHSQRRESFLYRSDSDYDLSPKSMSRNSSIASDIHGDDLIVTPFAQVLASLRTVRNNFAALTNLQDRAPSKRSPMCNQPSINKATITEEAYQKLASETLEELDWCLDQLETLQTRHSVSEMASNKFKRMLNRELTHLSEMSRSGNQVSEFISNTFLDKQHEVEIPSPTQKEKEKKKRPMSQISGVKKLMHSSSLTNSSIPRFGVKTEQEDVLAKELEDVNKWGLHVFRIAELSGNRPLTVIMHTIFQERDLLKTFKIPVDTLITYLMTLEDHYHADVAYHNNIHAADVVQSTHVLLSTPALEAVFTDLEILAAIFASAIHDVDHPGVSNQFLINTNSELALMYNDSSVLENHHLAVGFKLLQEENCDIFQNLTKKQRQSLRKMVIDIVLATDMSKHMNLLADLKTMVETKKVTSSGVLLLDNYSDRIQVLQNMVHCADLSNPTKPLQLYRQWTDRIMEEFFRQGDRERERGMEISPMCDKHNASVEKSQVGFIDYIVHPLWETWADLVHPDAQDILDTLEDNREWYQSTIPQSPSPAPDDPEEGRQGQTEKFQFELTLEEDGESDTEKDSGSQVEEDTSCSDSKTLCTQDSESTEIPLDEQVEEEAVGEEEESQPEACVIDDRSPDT
Description: Inhibition of recombinant human PDE4D2 catalytic domain (86 to 413 residues) expressed in Escherichia coli BL21 codonplus cells using [3H]cAMP as substrate preincubated for 15 mins followed by substrate addition by liquid scintillation counting method

Sequence of Cholinesterase (P81908 whole entry): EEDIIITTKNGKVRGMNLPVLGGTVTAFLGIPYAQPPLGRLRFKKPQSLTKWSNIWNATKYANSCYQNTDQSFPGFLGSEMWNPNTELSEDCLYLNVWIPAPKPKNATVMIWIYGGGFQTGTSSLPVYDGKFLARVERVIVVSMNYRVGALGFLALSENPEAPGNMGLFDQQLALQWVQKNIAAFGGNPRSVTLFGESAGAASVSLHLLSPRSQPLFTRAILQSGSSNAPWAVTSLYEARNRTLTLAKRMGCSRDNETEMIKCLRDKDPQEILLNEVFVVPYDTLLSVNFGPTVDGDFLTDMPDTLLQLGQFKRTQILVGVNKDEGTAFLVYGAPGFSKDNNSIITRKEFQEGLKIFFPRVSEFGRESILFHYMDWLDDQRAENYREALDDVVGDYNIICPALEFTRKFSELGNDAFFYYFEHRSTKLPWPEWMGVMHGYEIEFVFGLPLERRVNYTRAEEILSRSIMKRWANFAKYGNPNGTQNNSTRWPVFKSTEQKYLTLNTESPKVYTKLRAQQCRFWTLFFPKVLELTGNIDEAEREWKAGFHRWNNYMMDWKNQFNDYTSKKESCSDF
Sequence of Acetylcholinesterase (O42275 whole entry): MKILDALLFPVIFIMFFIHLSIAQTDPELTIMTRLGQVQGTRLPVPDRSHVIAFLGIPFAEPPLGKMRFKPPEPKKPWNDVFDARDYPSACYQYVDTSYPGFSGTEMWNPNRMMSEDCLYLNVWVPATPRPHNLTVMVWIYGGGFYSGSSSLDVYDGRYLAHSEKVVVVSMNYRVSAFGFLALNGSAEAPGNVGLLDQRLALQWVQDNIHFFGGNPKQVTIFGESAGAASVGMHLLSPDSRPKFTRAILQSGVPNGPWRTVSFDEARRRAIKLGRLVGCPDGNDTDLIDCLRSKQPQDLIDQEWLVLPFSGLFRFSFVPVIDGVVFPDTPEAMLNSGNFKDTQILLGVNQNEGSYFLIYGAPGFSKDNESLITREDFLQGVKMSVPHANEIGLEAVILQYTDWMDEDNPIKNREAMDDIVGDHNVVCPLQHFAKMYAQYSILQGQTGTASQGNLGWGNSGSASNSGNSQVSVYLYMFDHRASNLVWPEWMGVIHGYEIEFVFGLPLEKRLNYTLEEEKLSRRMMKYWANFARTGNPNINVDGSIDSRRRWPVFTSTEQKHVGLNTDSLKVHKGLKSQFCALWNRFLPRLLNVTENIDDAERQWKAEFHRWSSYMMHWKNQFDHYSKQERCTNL

| SMILES | IC50 [1] [nM] | IC50 [2] [nM] | IC50 [3] [nM] |
| --- | --- | --- | --- |
| CCn1ncc2c(NC3CCCCC3)c(C(=O)NCCCCCCCCNc3c4c(nc5cc(Cl)ccc35)CCCC4)cnc21 | 812 | 314 | 1080 |
| CCn1ncc2c(NC3CCCCC3)c(C(=O)NCCCCCCCCNc3c4c(nc5ccccc35)CCCC4)cnc21 | 392 | 320 | 1310 |
| CCn1ncc2c(NC3CCCCC3)c(C(=O)NCCCCNc3c4c(nc5cc(Cl)ccc35)CCCC4)cnc21 | 335 | 1280 | 87 |
| CCn1ncc2c(NC3CCCCC3)c(C(=O)NCCCCNc3c4c(nc5ccccc35)CCCC4)cnc21 | 333 | 889 | 108 |
| CCn1ncc2c(NC3CCCCC3)c(C(=O)NCCCCCCCNc3c4c(nc5ccc(Cl)cc35)CCCC4)cnc21 | 391 | 245 | 934 |
| CCn1ncc2c(NC3CCCCC3)c(C(=O)NCCNc3c4c(nc5ccccc35)CCCC4)cnc21 | 243 | 891 | 41 |
| CCn1ncc2c(NC3CCCCC3)c(C(=O)NCCCCCCCNc3c4c(nc5ccccc35)CCCC4)cnc21 | 316 | 324 | 1070 |
| CCn1ncc2c(NC3CCCCC3)c(C(=O)NCCCCCCNc3c4c(nc5cc(Cl)ccc35)CCCC4)cnc21 | 125 | 449 | 271 |
| CCn1ncc2c(NC3CCCCC3)c(C(=O)NCCCCCNc3c4c(nc5ccccc35)CCCC4)cnc21 | 358 | 264 | 477 |
| CCn1ncc2c(NC3CCCCC3)c(C(=O)NCCNc3c4c(nc5cc(Cl)ccc35)CCCC4)cnc21 | 412 | 713 | 25 |
| CCn1ncc2c(NC3CCCCC3)c(C(=O)NCCCCCCNc3c4c(nc5ccccc35)CCCC4)cnc21 | 149 | 332 | 501 |
| CCn1ncc2c(NC3CCCCC3)c(C(=O)NCCCCCNc3c4c(nc5ccc(Cl)cc35)CCCC4)cnc21 | 306 | 434 | 308 |

Reference: ChEMBL document CHEMBL4387778, “Dual functional cholinesterase and PDE4D inhibitors for the treatment of Alzheimer's disease: Design, synthesis and evaluation of tacrine-pyrazolo[3,4-b]pyridine hybrids” (Bioorg Med Chem Lett, 2019)
